The values that follow come from patent US6602867B1, “Triazole compounds with dopamine-D3-receptor affinity” (Abbott Laboratories, priority 1999, dated 2003).

Data set [1] concerns the target T1, human dopamine D2A receptors (Homo sapiens, UniProt P14416).
T1 construct: expressed in transfected cells; host or cells: HEK-293 cells
As to the kind of experiment: D2 binding test (125I-spiperone, HEK-293 cells). To be noted: selectivity versus D2 receptor, Ki(D2)/Ki(D3). The procedure:
All the media contained 100 units of penicillin […] and 100 μg/ml of streptomycin/ml. The cells were maintained at 37° C. in a moist atmosphere containing 5% CO2.
The cells were prepared for the binding studies by trypsinizing them (0.05% solution of trypsin) at room temperature for 3-5 minutes. After that, the cells were centrifuged at 250 g for 10 minutes and treated with lysis buffer (5 mM Tris-HCl, 10% glycerol, pH 7.4) at 4° C. for 30 minutes. After centrifuging at 250 g for 10 minutes, the residue was stored at −20° C. until used.
Low affinity state dopamine D2 receptor using ^125I-spiperone (81 TBq/mmol, Du Pont de Nemours, Dreieich)
The test mixtures (1 ml) consisted of 1×10^5 cells in incubation buffer (50 mM Tris, 120 mM NaCl, 5 mM KCl, 2 mM MgCl2 and 2 mM CaCl2, pH 7.4 with HCl) and […] ^125I-spiperone (total binding) or additionally 1 μM haloperidol (nonspecific binding) or test substance.
After the test mixtures had been incubated at 25° C. for 60 minutes, they were filtered through GM/B glass filters (Whatman, England) on a Skatron cell harvester (from Zinsser, Frankfurt), and the filters were washed with ice-cold 50 mM Tris-HCl buffer, pH 7.4. The radioactivity which had collected on the filters was quantified using a Packard 2200 CA liquid scintillation counter.
The results were evaluated as described in a).
The Ki values were determined by way of nonlinear regression analysis using the LIGAND program or by converting the IC50 values using the Cheng and Prusoff formula.

A further data set has as its target T2, human D3-receptor (Homo sapiens, UniProt P35462).
T2 construct: host or cells: CCL 1,3 mouse fibroblasts
As to the kind of experiment: D3 binding test (125iodosulpiride, membranes of CCL 1,3 mouse fibroblasts). The settings on record: negative logarithm of the affinity constant for the D3 receptor; read-out: pKi (D3) (converted). How it is done:
Cloned human D3-receptor-expressing CCL 1,3 mouse fibroblasts, obtainable from Res. Biochemicals Internat. One Strathmore Rd., Natick, Mass. 01760-2418 USA, were used for the binding studies.
The D3-expressing cells were multiplied in RPMI-1640 containing 10% fetal calf serum (GIBCO No. 041-32400 N); 100 U of penicillin/ml and 0.2% streptomycin (GIBO BRL, Gaithersburg, Md., USA). After 48 h, the cells were washed with PBS and incubated for 5 min with 0.05% trypsin-containing PBS. After that, the solution was neutralized with medium and the cells were collected by centrifuging at 300 g. In order to lyse the cells, the pellet was washed briefly with lysis buffer (5 mM Tris-HCl, pH 7.4, containing 10% glycerol) and after that incubated, at 4° C. for 30 min, at a concentration of 10^7 cells/ml of lysis buffer. The cells were centrifuged at 200 g for 10 min and the pellet was stored in liquid nitrogen.
For the D3-receptor binding test, the membranes were suspended in incubation buffer (50 mM Tris-HCl, pH 7.4, containing 120 mM NaCl, 5 mM KCl, 2 mM CaCl2, 2 mM MgCl2, 10 μM quinolinol, 0.1% ascorbic acid and 0.1% BSA), at a concentration of approx. 10^6 cells/250 μl of test mixture, and incubated at 30° C. with 0.1 nM ^125iodosulpiride in the presence and absence of the test substance. The nonspecific binding was determined using 10^−6 M spiperone.
After 60 min, the free radioligand and the bound radioligand were separated by filtering through GF/B glass fiber filters (Whatman, England) on a Skatron cell harvester (Skatron, Lier, Norway), and the filters were washed with ice-cold Tris-HCl buffer, pH 7.4. The radioactivity which had collected on the filters was quantified using a Packard 2200 CA liquid scintillation counter.
The Ki values were determined by means of nonlinear regression analysis using the LIGAND program.

Each structure is given as a SMILES string. Structures can show the parent of a compound that is named as a salt.

T2 sequence (P35462 whole entry): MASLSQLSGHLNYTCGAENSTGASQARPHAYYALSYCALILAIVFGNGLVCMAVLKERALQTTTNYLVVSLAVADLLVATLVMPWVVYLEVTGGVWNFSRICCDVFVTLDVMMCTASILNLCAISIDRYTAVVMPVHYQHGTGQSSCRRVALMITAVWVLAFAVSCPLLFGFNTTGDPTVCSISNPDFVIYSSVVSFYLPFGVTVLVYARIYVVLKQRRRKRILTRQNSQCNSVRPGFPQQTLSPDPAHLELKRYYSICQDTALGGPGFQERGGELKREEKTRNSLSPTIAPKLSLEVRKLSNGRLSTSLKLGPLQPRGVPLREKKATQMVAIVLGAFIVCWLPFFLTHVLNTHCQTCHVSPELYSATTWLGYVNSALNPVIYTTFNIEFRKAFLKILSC
T1 sequence (P14416 whole entry): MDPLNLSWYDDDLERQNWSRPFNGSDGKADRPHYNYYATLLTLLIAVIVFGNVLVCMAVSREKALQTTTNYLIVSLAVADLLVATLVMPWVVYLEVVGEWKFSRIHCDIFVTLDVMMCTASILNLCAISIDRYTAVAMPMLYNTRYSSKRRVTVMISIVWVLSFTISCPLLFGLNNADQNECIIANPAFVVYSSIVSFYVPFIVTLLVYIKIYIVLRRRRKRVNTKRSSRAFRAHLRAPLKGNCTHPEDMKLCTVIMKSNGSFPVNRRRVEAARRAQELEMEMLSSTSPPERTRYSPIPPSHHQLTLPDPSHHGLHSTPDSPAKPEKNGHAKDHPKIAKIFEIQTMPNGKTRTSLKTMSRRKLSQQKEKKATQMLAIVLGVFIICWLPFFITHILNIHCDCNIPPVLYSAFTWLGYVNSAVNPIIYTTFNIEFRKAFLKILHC

On to `Cl.Cl.Cn1c(SCCCN2CCc3ccccc3C2)nnc1-c1cccnc1`, for which the melting point lay in the range of 87 to 89 °C. `COc1ccc2c(c1)CCN(CCCSc1nnc(-c3ccccc3)n1C)C2` [Example 3, 2-{3-[(4-Methyl-5-phenyl-4H-1,2,4-triazol-3-yl)sulfanyl]propyl}-6-methoxy-1,2,3,4-tetrahydroisoquinoline]: the Selectivity in data set [1] turned out to be 78. In addition, on human D3-receptor, the Ki is 9.55 nM. For `Cl.Cn1c(SCCCN2CCc3ccc(C(F)(F)F)cc3C2)nnc1-c1ccccc1`, the melting point lay within 205 to 207 °C.

The compound `Cn1c(SCCCN2CCc3cc(Cl)c(Cl)cc3C2)nnc1-c1ccccc1` [Example 28, 6,7-Dichloro-2-{3-[(4-methyl-5-phenyl-4H-1,2,4-triazol-3-yl)-sulfanyl]propyl}-1,2,3,4-tetrahydroisoquinoline] displayed a melting point of 138 to 139 °C.

The compound `Cn1c(SCCCN2CCc3ccc(S(=O)(=O)N4CCCCC4)cc3C2)nnc1-c1ccccc1` [Example 4, 2-{3-[(4-Methyl-5-phenyl-4H-1,2,4-triazol-3-yl)sulfanyl]propyl}-7-(piperidin-1-ylsulfonyl)-1,2,3,4-tetrahydroisoquinoline] gave a melting point of 105 to 108 °C. In data set [1], the Selectivity was found to be 67. Moreover, the Ki at human D3-receptor is 11 nM. `Cn1c(SCCCN2CCc3ccc(S(=O)(=O)NCc4ccccc4)cc3C2)nnc1-c1cccnc1` (as salt: HCl) [Example 10, N-Benzyl-2-{3-[(4-methyl-5-pyridin-3-yl-4H-1,2,4-triazol-3-yl)-sulfanyl]propyl}-1,2,3,4-tetrahydroisoquinoline-7-sulfonamide] had a melting point of 81 to 84 °C. The compound `Cc1ncsc1-c1nnc(SCCCN2CCc3ccc(S(=O)(=O)Nc4ccccc4)cc3C2)n1C` [Example 26, 2-(3-{[4-Methyl-5-(4-methyl-1,3-thiazol-5-yl)-4H-1,2,4-triazol-3-yl]sulfanyl}propyl)-N-phenyl-1,2,3,4-tetrahydroisoquinoline-7-sulfonamide] showed a melting point of 77 to 81 °C.

Compound `Cn1c(SCCCN2CCc3ccc(C#N)cc3C2)nnc1-c1ccccc1` [Example 7, 2-{3-[(4-Methyl-5-phenyl-4H-1,2,4-triazol-3-yl)sulfanyl]propyl}-1,2,3,4-tetrahydroisoquinoline-7-carbonitrile] showed a melting point of 116 to 118 °C. In data set [1], this compound yielded a Selectivity of 81. The Ki at human D3-receptor is 4.27 nM. As to `COc1cccc2c1CCN(CCCSc1nnc(-c3ccccc3)n1C)C2` [Example 11, 5-Methoxy-2-{3-[(4-methyl-5-phenyl-4H-1,2,4-triazol-3-yl)-sulfanyl]propyl}-1,2,3,4-tetrahydroisoquinoline], the melting point lay in the range of 73 to 75 °C. The same measure, in the same setting: with `C=C(CSc1nnc(-c2ccccc2)n1C)CN1CCc2ccc([N+](=O)[O-])cc2C1.Cl` the figure was 146 to 150 °C; with `COc1ccc2c(c1)CCN(CCCSc1nnc(-c3ccc[nH]3)n1C)C2` [Example 2, 6-Methoxy-2-{3-[(4-methyl-5-pyrrol-2-yl-4H-1,2,4-triazol-3-yl)-sulfanyl]propyl}-1,2,3,4-tetrahydroisoquinoline], 179 to 181 °C; with `COC(=O)c1ccc2c(c1)CN(CCCSc1nnc(-c3ccccc3)n1C)CC2.O=C(O)C(=O)O`, 160 to 163 °C.

`Cc1ncsc1-c1nnc(SCCCN2CCc3ccc(S(=O)(=O)NCc4ccccc4)cc3C2)n1C` [Example 9, N-Benzyl-2-(3-{[4-methyl-5-(4-methyl-1,3-thiazol-5-yl)-4H-1,2,4-triazol-3-yl]sulfanyl}propyl)-1,2,3,4-tetrahydroisoquinoline-7-sulfonamide] displayed a melting point of 67 to 70 °C.

In turn, `Cn1c(SCCCN2CCc3ccc(NS(C)(=O)=O)cc3C2)nnc1-c1ccccc1` (as salt: HCl) [Example 84, N-[2-(3-{[4-Methyl-5-phenyl-4H-1,2,4-triazol-3-yl]sulfanyl}-propyl)-1,2,3,4-tetrahydroisoquinolin-7-yl]methansulfonamide] registered a melting point of 90 °C. `Cn1c(SCCCN2CCc3ccc(S(=O)(=O)Nc4ccccc4)cc3C2)nnc1-c1cccnc1` [Example 25, 2-{3-[(4-Methyl-5-pyridin-3-yl-4H-1,2,4-triazol-3-yl)sulfanyl]-propyl}-N-phenyl-1,2,3,4-tetrahydroisoquinoline-7-sulfonamide]: the melting point was in the range of 58 to 61 °C. For `CCN(CC)CCOc1cccc2c1CCN(CCCSc1nnc(-c3ccccc3)n1C)C2.Cl.Cl`, the melting point is 110 to 112 °C.

`Cl.Cn1c(SCCCN2CCc3cc(C(F)(F)F)ccc3C2)nnc1-c1ccsc1` displayed a melting point of 184 to 185 °C.

In the case of `Cn1c(SCCCN2CCc3ccc(S(=O)(=O)N4CCCC(C)(C)C4)cc3C2)nnc1-c1ccccc1` [Example 49, 7-[(3,3-Dimethylpiperidin-1-yl)sulfonyl]-2-{3-[(4-methyl-5-phenyl-4H-1,2,4-triazol-3-yl)sulfanyl]propyl}-1,2,3,4-tetrahydroisoquinoline], the melting point lay within 75 to 76 °C.

`Cn1c(SCCCN2CCc3cc(Cl)ccc3C2)nnc1-c1ccsc1` [Example 39, 6-Chloro-2-{3-[(4-methyl-5-thien-3-yl-4H-1,2,4-triazol-3-yl)-sulfanyl]propyl}-1,2,3,4-tetrahydroisoquinoline] displayed a melting point of 99 to 100 °C. The same measure, in the same setting: as for `Cl.Cn1c(CCCCN2CCc3ccc(C#N)cc3C2)nnc1-c1ccccc1`, the figure is 175 °C.

Compound `Cn1cccc1-c1nnc(SCCCN2CCc3ccc(S(=O)(=O)N4CCCCC4)cc3C2)n1C` [Example 35, 2-(3-{[4-Methyl-5-(1-methyl-1H-pyrrol-2-yl)-4H-1,2,4-triazol-3-yl]sulfanyl}propyl)-7-(piperidin-1-ylsulfonyl)-1,2,3,4-tetrahydroisoquinoline] yielded a melting point of 96 to 100 °C. Still for that read-out and setting: with `CCN(CC)Cc1ccc2c(c1)CN(CCCSc1nnc(-c3ccccc3)n1C)CC2.Cl.Cl` the figure was 75 °C.
